Assay results reported in article PMC10147923, “Pain-causing stinging nettle toxins target TMEM233 to modulate NaV1.7 function” (Nature Communications, 2023).
Positions of bridges follow the written chain, without caps; N, C: chain ends. Residues, ends and D or L forms follow the SMILES beside them.

Target: TMEM233 (Homo sapiens, UniProt B4DJY2)
Assay: Currents in Cos-1 cells transfected with TMEM233 only
Assay type: cell-based
Procedure: Whole-cell patch clamp experiments involving HEK293, COS-1, CHO, ND7/23, F11, SH-SY5Y and TE-671 cells were performed on a QPatch II automated electrophysiology platform (Sophion Bioscience, Ballerup, Denmark) as previously described. Cells at approximately 70–80% confluency were harvested from T75 flasks using TrypLE Express at 37 °C for 2–5 min and resuspended in DMEM with 25 mM HEPES (Sigma-Aldrich, NSW, Australia), 100 U/mL Penicillin-Streptomycin (Gibco) and 40 µg/mL trypsin inhibitor from Glycine max (soybean) (Sigma Aldrich) prior to recovery on a QStirrer (Sophion) for 30 min. 16-channel patch plates with a patch hole diameter of 1 μm and resistance of 2 ± 0.02 MΩ were used. Cell positioning and sealing parameters were as follows: positioning pressure −60 mbar, minimum seal resistance 0.1 GΩ, holding potential −100 mV, holding pressure −20 mbar. Whole-cell currents were filtered at 5 kHz and acquired at 25 kHz. Series resistance compensation was used and set to 70%.

TMEM233, sequence (B4DJY2 whole entry): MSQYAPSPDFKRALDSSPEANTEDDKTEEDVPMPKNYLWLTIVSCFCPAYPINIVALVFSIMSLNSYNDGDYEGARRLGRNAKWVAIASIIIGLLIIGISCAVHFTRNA

CC[C@H](C)[C@@H]1NC(=O)[C@H](CCCNC(=N)N)NC(=O)[C@H](Cc2ccccc2)NC(=O)[C@H](CC(C)C)NC(=O)[C@H](CO)NC(=O)[C@@H]2CSSC[C@@H]3NC(=O)[C@H]([C@@H](C)O)NC(=O)[C@H](CSSC[C@H](NC(=O)[C@H](CCCNC(=N)N)NC(=O)[C@@H]4CCCN4C(=O)[C@@H](N)CC(C)C)C(=O)N[C@@H](CC(=O)O)C(=O)N[C@@H](CO)C(=O)N4CCC[C@H]4C(=O)N[C@@H](Cc4ccccc4)C(=O)N2)NC(=O)[C@H](CCCCN)NC(=O)[C@H](CC(=O)O)NC(=O)CNC(=O)[C@H](CSSC[C@@H](C(=O)N[C@H](C(=O)N2CCC[C@H]2C(=O)N[C@@H](CC(=O)O)C(=O)N[C@H](C(=O)O)C(C)C)C(C)C)NC(=O)[C@H](CC(C)C)NC(=O)CNC(=O)[C@H](Cc2ccccc2)NC(=O)[C@H]([C@@H](C)CC)NC(=O)[C@@H]2CCCN2C(=O)[C@H](CC(C)C)NC(=O)[C@@H]2CCCN2C(=O)[C@H](C(C)C)NC3=O)NC(=O)[C@H](CC(C)C)NC(=O)CNC1=O [ExTxA, excelsatoxin A] (H-LPRCDSPFCSLFRIGLCGDKCTCVPLPIFGLCVPDV-OH; disulfide 4-21, 9-23, 17-32)
ExTxA-induced persistent current: -7.493 ± 8.833
ExTxA-induced currents, TMEM233 alone (cells lacking endogenous NaV currents): did not result in either voltage-gated or ExTxA-induced currents
